# ± gives the standard deviation of the averaged measurements.
# Assays:
# Assay in all cases: level (log10 ratio to DMSO vehicle control); higher = higher biomarker level / cell amount than vehicle control
# Conditions in all cases: in DMSO
# [1] = compound: C=CC(=O)OCCC(F)(F)C(F)(F)C(F)(F)C(F)(F)F [2-(Perfluorobutyl)ethyl acrylate]
# Procedure: (§1)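 BioMAP Diversity Plus panel of 12 human primary cell co-culture systems (3C, 4H, LPS, SAg, BT, BF4T, BE3C, CASM3C, HDF3CGF, KF3CT, MyoF, Mphg). Compounds were added 1 h before stimulation and left for 24 h (MyoF 48 h; BT 72 h for soluble read-outs or 6 d for IgG). Biomarkers were read by ELISA, cytotoxicity by SRB, PBMC viability and proliferation by Alamar Blue. Each well value was divided by the mean of 8 DMSO control wells on the same plate and log10 transformed; duplicate blinded samples were tested at 4 concentrations.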
# [2] = compound: N=C(N)C(F)(F)C(F)(F)C(F)(F)C(F)(F)C(F)(F)C(F)(F)C(F)(F)F [Perfluorooctanamidine]
# Procedure: as §1
# [3] = compound: O=C(O)C(F)(F)C(F)(F)C(F)(F)C(F)(F)C(F)(F)F [Perfluorohexanoic acid]
# Procedure: as §1
test system,measurement,setting,value
3C:CCL2/MCP-1,level (log10),[1]; 6700 nM,-0.0105 ± 0.021
same,level (log10),[1]; 20000 nM,-0.0305 ± 0.0035
same,level (log10),[1]; 60000 nM,-0.0245 ± 0.029
same,level (log10),[2]; 6700 nM,0.0185 ± 0.012
same,level (log10),[2]; 20000 nM,0.0085 ± 0.011
same,level (log10),[2]; 60000 nM,0.062
same,level (log10),[3]; 6700 nM,-0.006 ± 0.0028
same,level (log10),[3]; 20000 nM,-0.0145 ± 0.005
same,level (log10),[3]; 60000 nM,0.0115 ± 0.022
3C:CD54/ICAM-1,level (log10),[1]; 6700 nM,0.0055 ± 0.0021
same,level (log10),[1]; 20000 nM,-0.01 ± 0.0042
same,level (log10),[1]; 60000 nM,-0.01 ± 0.011
same,level (log10),[2]; 6700 nM,-0.0065 ± 0.0035
same,level (log10),[2]; 20000 nM,-0.038 ± 0.013
same,level (log10),[2]; 60000 nM,-0.049
same,level (log10),[3]; 6700 nM,0.005 ± 0.013
same,level (log10),[3]; 20000 nM,-0.0045 ± 0.016
same,level (log10),[3]; 60000 nM,-0.0005 ± 0.019
3C:CD62E/E-Selectin,level (log10),[1]; 6700 nM,-0.016 ± 0.0028
same,level (log10),[1]; 20000 nM,-0.059 ± 0.0014
same,level (log10),[1]; 60000 nM,-0.163 ± 0.05
same,level (log10),[2]; 6700 nM,-0.0045 ± 0.023
same,level (log10),[2]; 20000 nM,-0.005 ± 0.027
same,level (log10),[2]; 60000 nM,-0.039
same,level (log10),[3]; 6700 nM,-0.0065 ± 0.0092
same,level (log10),[3]; 20000 nM,-0.007 ± 0.011
same,level (log10),[3]; 60000 nM,0.0145 ± 0.029
3C:CD106/VCAM-1,level (log10),[1]; 6700 nM,-0.0335 ± 0.005
same,level (log10),[1]; 20000 nM,-0.0715 ± 0.039
same,level (log10),[1]; 60000 nM,-0.14 ± 0.04
same,level (log10),[2]; 6700 nM,-0.017 ± 0.028
same,level (log10),[2]; 20000 nM,-0.037 ± 0.031
same,level (log10),[2]; 60000 nM,-0.088
same,level (log10),[3]; 6700 nM,-0.002 ± 0.018
same,level (log10),[3]; 20000 nM,-0.0025 ± 0.029
same,level (log10),[3]; 60000 nM,0.005 ± 0.044
3C:CD141/Thrombomodulin,level (log10),[1]; 6700 nM,-0.059 ± 0.027
same,level (log10),[1]; 20000 nM,-0.0955 ± 0.025
same,level (log10),[1]; 60000 nM,-0.142 ± 0.027
same,level (log10),[2]; 6700 nM,-0.015 ± 0.031
same,level (log10),[2]; 20000 nM,-0.021 ± 0.024
same,level (log10),[2]; 60000 nM,-0.013
same,level (log10),[3]; 6700 nM,-0.0205 ± 0.005
same,level (log10),[3]; 20000 nM,-0.022 ± 0.027
same,level (log10),[3]; 60000 nM,-0.006
3C:CD142/Tissue Factor,level (log10),[1]; 6700 nM,-0.0105 ± 0.043
same,level (log10),[1]; 20000 nM,-0.127 ± 0.034
same,level (log10),[1]; 60000 nM,-0.381 ± 0.016
same,level (log10),[2]; 6700 nM,-0.02 ± 0.018
same,level (log10),[2]; 20000 nM,-0.0105 ± 0.012
same,level (log10),[2]; 60000 nM,-0.014
same,level (log10),[3]; 6700 nM,0.011 ± 0.0085
same,level (log10),[3]; 20000 nM,-0.0135 ± 0.0092
same,level (log10),[3]; 60000 nM,0.0005 ± 0.012
BE3C:Keratin 8/18,level (log10),[1]; 6700 nM,-0.0135 ± 0.025
same,level (log10),[1]; 20000 nM,0 ± 0.016
same,level (log10),[1]; 60000 nM,0.006 ± 0.013
same,level (log10),[2]; 6700 nM,-0.0165 ± 0.0021
same,level (log10),[2]; 20000 nM,-0.014 ± 0.0057
same,level (log10),[2]; 60000 nM,0.007
same,level (log10),[3]; 6700 nM,-0.017 ± 0.0057
same,level (log10),[3]; 20000 nM,-0.0125 ± 0.0035
same,level (log10),[3]; 60000 nM,-0.0175 ± 0.021
BE3C:MMP-1,level (log10),[1]; 6700 nM,0.0175 ± 0.028
same,level (log10),[1]; 20000 nM,-0.007 ± 0.016
same,level (log10),[1]; 60000 nM,0.0705 ± 0.022
same,level (log10),[2]; 6700 nM,0.0525 ± 0.03
same,level (log10),[2]; 20000 nM,0.057 ± 0.044
same,level (log10),[2]; 60000 nM,0.262
same,level (log10),[3]; 6700 nM,-0.0075 ± 0.0064
same,level (log10),[3]; 20000 nM,0 ± 0.011
same,level (log10),[3]; 60000 nM,0.0275 ± 0.012
BE3C:MMP-9,level (log10),[1]; 6700 nM,-0.004 ± 0.0071
same,level (log10),[1]; 20000 nM,-0.006 ± 0.0014
same,level (log10),[1]; 60000 nM,-0.028 ± 0.0085
same,level (log10),[2]; 6700 nM,-0.0115 ± 0.005
same,level (log10),[2]; 20000 nM,-0.015 ± 0.023
same,level (log10),[2]; 60000 nM,-0.001
same,level (log10),[3]; 6700 nM,-0.0155 ± 0.018
same,level (log10),[3]; 20000 nM,-0.005 ± 0.0071
same,level (log10),[3]; 60000 nM,0.0145 ± 0.013
BE3C:PAI-I,level (log10),[1]; 6700 nM,0.0125 ± 0.033
same,level (log10),[1]; 20000 nM,0.038 ± 0.018
same,level (log10),[1]; 60000 nM,0.076 ± 0.021
same,level (log10),[2]; 6700 nM,0.0015 ± 0.00071
same,level (log10),[2]; 20000 nM,-0.006 ± 0.0099
same,level (log10),[2]; 60000 nM,-0.021
same,level (log10),[3]; 6700 nM,-0.019 ± 0.018
same,level (log10),[3]; 20000 nM,-0.029 ± 0.011
same,level (log10),[3]; 60000 nM,0.0065 ± 0.022
BE3C:SRB,level (log10),[1]; 6700 nM,-0.0035 ± 0.005
same,level (log10),[1]; 20000 nM,-0.0055 ± 0.0021
same,level (log10),[1]; 60000 nM,-0.0015 ± 0.0021
same,level (log10),[2]; 6700 nM,-0.0075 ± 0.005
same,level (log10),[2]; 20000 nM,-0.001 ± 0.016
same,level (log10),[2]; 60000 nM,0.009
same,level (log10),[3]; 6700 nM,-0.001
same,level (log10),[3]; 20000 nM,-0.006 ± 0.0014
same,level (log10),[3]; 60000 nM,0.009 ± 0.018
BE3C:tPA,level (log10),[1]; 6700 nM,-0.036 ± 0.041
same,level (log10),[1]; 20000 nM,-0.056 ± 0.0014
same,level (log10),[1]; 60000 nM,-0.13 ± 0.018
same,level (log10),[2]; 6700 nM,0 ± 0.0028
same,level (log10),[2]; 20000 nM,-0.006 ± 0.0014
same,level (log10),[2]; 60000 nM,0.019
same,level (log10),[3]; 6700 nM,-0.032 ± 0.054
same,level (log10),[3]; 20000 nM,-0.0405 ± 0.016
same,level (log10),[3]; 60000 nM,-0.046 ± 0.018
BE3C:uPA,level (log10),[1]; 6700 nM,0.0075 ± 0.032
same,level (log10),[1]; 20000 nM,-0.0035 ± 0.022
same,level (log10),[1]; 60000 nM,-0.0175 ± 0.015
same,level (log10),[2]; 6700 nM,-0.008 ± 0.011
same,level (log10),[2]; 20000 nM,-0.0095 ± 0.0078
same,level (log10),[2]; 60000 nM,0.004
same,level (log10),[3]; 6700 nM,-0.03 ± 0.013
same,level (log10),[3]; 20000 nM,-0.01 ± 0.018
same,level (log10),[3]; 60000 nM,0.0025 ± 0.016
CASM3C:CCL2/MCP-1,level (log10),[1]; 6700 nM,-0.001 ± 0.0099
same,level (log10),[1]; 20000 nM,-0.0085 ± 0.0064
same,level (log10),[1]; 60000 nM,-0.0035 ± 0.0064
same,level (log10),[2]; 6700 nM,0.008 ± 0.024
same,level (log10),[2]; 20000 nM,0.011 ± 0.034
same,level (log10),[2]; 60000 nM,0.085
same,level (log10),[3]; 6700 nM,-0.014 ± 0.0042
same,level (log10),[3]; 20000 nM,0.0025 ± 0.021
same,level (log10),[3]; 60000 nM,0.008 ± 0.027

# Source: the supplement of paper PMC10331698
